The target of assay [1] is T1, N-type calcium channel α1B (Cav2.2), β3 and α2δ subunits (Homo sapiens, UniProt Q00975).
T1 construct: expressed in transfected cells
The assay can be described thus: Functional assay, antagonism of N-type calcium channel (FDSS calcium mobilization response to KCl depolarization). It counts as cell-based. As to conditions: for inhibition at 0.33 µM: 0.33 μM compound, FDSS, 50 mM KCl; for IC50: HEK stable cell line, 50 mM KCl depolarization, six-point concentration-response. In short, it runs like this: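 HEK cells stably co-expressing α1B (Cav2.2), β3 and α2δ subunits were loaded with calcium dye, preincubated with compound for 5 min, then depolarized with 50 mM KCl and read for 3 min by FDSS fluorescence. IC50 from six-point curves, normalized to KCl maximum and buffer minimum.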

Another assay addresses T2, N-type calcium channel (Homo sapiens, UniProt Q00975).
T2 construct: expressed in transfected cells
The assay can be described thus: Automated electrophysiology assay (QPatch-HT whole-cell patch clamp). It counts as cell-based. As to the method:
Cells were grown in T175 flasks to 50%-90% confluence. At the time of use, cells were enzymatically treated with Detachin (Genlantis, San Diego, Calif. USA), centrifuged, rinsed, and resuspended in 293 SFM II media (Life Technologies, Grand Island, N.Y. U.S.A.) supplemented with 25 mM HEPES (Sigma-Aldrich, St. Louis, Mo. U.S.A.) to a concentration of 2-3×10^6 cells/mL. Cells were added to the automated cell preparation station on the QPatch-HT (Sophion Biosciences, North Brunswick, N.J. U.S.A.), and following a 10- to 30-min recovery period with gentle stirring, the assay protocol was initiated. During the automated cell preparation, cells were collected, centrifuged and resuspended in an extracellular (EC) solution containing 132 mM NaCl, 1.8 mM CaCl2, 5.4 mM KCl, 0.8 mM MgCl2, 10 mM glucose, and 10 mM HEPES (pH=7.4), adjusted with sucrose to approximately 315 m0sm. The QPlate was primed with an intracellular solution containing 135 mM CsCl, 10 mM EGTA, 4 MgATP, 0.3 NaGTP, and 20 mM HEPES (pH=7.2), adjusted to approximately 290 m0sm with deionized water and the EC solution. Cells were added to the prepared QPlate wells by robotic pipettes of the QPatch-HT.
For cells determined to be in stable whole-cell patch clamp, the EC solution was replaced with a barium (Ba)/triethylammonium (TEA) solution containing 140 mM TEA-Cl, 10 mM BaCl2, 0.8 mM MgCl2, 10 mM glucose and 10 mM HEPES (pH=7.4). High (40 mM) BaCl2 concentrations were made with adjustments to TEA-C1 (90 mM) to maintain the osmolarity. From a resting potential of −80 mV, a train of depolarizing pulses (15 pulses at 5 Hz, +20 mV) was delivered to the cell once every 30 sec for eight trains (4 min total), and the resulting currents were measured during a control period (no compound). This protocol was repeated for each subsequent addition of control buffer with or without compound (three periods total, each with four trains). The current generated in the 1st and 15th pulses of the last train of each period in the presence of each drug concentration was normalized to the current generated during the control period at the respective pulses (representing low- and high-frequency stimulation, respectively). Data from both the second and third drug application periods were analyzed for each cell. A final addition of Ba/TEA solution containing 60-100 μM CdCl2 was made to block all N-type current and to “zero” the currents for each cell. All buffer/compound additions were made using a “spitting” feature of the QPatch-HT, which added three repetitions of 5 μL solution at the beginning of each recording period.
To examine closed-state inactivation, cells were subjected to a channel-activating 50-msec depolarizing step pulse from −80 to +10 mV, followed by a 5-sec nonactivating step to voltages ranging from −130 to −60 mV in 10 mV increments and then a 50-ms step from −80 to +10 mV to assess the remaining current. Currents from the activating voltage pulse were normalized to the peak value of the test pulse following the −130 mV step and fit to a Boltzman equation to obtain the V1/2. Roscovitine (Sigma-Aldrich) was prepared as a 100 mM stock in dimethyl sulfoxide and diluted to the indicated working concentrations. […]. Compounds of Formula (I) were diluted first into dimethyl sulfoxide and then into 10% pluronic F-127 in water (Life Technologies), sonicated for 1 min and diluted into EC buffer. Vehicle controls were run in parallel in all experiments.
Unless otherwise indicated, statistics for comparing among electrophysiological results utilized a one-way analysis of variance with Fisher's least squares determination test for pair-wise comparison.

The mark [2] stands for this setting: high frequency (15th pulse of train, 5 Hz), read-out: QPatch at High Frequency % Inhibition.
The mark [3] stands for this setting: low frequency (1st pulse of train), read-out: QPatch at Low Frequency % Inhibition.

SMILES strings stand for the structures. Where two headings read alike, the source gives them in different places.

T1 sequence (Q00975 whole entry): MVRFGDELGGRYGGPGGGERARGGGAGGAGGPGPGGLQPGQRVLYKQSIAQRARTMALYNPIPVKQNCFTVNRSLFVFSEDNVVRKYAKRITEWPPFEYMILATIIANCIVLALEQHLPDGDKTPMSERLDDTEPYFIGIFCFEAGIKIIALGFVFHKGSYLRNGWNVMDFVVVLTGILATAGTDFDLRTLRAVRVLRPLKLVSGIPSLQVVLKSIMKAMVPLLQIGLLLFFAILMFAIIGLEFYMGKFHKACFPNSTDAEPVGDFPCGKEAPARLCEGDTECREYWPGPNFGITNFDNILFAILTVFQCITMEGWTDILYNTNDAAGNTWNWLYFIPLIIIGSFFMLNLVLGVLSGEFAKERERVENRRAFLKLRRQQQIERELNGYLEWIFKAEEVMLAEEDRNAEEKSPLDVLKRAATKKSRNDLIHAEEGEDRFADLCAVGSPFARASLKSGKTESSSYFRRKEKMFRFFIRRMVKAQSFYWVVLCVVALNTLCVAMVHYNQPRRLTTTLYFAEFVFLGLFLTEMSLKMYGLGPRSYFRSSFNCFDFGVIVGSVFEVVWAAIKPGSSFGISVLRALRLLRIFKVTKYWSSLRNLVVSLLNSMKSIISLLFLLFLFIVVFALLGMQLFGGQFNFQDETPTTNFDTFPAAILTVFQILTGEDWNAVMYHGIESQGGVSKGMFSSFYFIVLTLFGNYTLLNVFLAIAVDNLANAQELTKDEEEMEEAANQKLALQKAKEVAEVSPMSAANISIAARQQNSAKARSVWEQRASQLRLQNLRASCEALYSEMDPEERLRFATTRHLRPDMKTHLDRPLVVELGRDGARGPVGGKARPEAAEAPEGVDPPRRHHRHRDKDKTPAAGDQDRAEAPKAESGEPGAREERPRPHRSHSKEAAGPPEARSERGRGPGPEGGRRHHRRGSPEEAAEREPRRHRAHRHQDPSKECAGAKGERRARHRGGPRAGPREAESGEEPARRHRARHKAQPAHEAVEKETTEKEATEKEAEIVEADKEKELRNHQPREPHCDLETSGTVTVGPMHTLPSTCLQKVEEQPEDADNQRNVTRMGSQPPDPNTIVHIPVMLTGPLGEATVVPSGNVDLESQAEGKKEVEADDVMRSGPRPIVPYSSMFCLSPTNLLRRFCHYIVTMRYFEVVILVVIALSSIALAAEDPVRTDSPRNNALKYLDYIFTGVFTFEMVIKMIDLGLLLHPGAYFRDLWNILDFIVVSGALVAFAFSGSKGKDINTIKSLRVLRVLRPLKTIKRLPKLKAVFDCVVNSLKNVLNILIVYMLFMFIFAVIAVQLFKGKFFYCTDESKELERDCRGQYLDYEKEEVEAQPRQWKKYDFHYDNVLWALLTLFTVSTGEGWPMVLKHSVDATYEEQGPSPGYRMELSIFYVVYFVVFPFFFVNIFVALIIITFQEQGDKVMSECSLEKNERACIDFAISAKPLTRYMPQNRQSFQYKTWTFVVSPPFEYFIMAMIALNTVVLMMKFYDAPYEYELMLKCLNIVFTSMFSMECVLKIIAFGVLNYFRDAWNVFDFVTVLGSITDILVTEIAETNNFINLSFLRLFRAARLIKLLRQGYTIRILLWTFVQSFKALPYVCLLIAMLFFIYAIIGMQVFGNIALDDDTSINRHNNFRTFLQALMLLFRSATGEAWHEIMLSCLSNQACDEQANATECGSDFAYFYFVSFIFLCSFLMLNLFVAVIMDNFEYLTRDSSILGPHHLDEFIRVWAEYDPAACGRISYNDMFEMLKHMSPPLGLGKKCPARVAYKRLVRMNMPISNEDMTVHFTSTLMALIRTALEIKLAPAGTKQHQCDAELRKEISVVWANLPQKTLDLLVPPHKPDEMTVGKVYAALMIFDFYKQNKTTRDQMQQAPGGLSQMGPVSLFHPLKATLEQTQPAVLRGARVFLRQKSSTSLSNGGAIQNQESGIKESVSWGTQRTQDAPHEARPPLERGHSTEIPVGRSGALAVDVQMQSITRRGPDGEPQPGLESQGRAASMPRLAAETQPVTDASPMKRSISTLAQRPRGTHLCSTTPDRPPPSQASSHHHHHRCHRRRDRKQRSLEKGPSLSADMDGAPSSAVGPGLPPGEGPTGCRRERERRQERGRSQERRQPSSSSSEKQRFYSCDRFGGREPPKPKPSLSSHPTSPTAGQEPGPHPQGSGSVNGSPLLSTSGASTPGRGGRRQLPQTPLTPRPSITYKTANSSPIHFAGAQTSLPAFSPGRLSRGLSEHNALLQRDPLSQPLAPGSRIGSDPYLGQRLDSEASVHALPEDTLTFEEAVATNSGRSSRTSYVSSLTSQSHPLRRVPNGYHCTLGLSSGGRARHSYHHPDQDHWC
T1 sequence (P54284 whole entry partner): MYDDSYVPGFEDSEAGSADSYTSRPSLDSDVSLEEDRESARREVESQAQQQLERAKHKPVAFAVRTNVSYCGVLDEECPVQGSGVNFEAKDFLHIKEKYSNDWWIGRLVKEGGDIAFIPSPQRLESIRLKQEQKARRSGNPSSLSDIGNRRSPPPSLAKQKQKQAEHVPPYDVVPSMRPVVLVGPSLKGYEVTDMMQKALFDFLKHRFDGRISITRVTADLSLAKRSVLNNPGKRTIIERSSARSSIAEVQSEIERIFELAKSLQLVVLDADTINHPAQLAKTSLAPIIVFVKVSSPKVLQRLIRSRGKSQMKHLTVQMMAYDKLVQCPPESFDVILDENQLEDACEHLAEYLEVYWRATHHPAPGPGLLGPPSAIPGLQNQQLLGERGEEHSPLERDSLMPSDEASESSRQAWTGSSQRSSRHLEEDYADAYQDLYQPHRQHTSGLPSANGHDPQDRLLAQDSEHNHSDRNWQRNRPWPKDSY
T1 sequence (P54289 25-956 partner limits assumed): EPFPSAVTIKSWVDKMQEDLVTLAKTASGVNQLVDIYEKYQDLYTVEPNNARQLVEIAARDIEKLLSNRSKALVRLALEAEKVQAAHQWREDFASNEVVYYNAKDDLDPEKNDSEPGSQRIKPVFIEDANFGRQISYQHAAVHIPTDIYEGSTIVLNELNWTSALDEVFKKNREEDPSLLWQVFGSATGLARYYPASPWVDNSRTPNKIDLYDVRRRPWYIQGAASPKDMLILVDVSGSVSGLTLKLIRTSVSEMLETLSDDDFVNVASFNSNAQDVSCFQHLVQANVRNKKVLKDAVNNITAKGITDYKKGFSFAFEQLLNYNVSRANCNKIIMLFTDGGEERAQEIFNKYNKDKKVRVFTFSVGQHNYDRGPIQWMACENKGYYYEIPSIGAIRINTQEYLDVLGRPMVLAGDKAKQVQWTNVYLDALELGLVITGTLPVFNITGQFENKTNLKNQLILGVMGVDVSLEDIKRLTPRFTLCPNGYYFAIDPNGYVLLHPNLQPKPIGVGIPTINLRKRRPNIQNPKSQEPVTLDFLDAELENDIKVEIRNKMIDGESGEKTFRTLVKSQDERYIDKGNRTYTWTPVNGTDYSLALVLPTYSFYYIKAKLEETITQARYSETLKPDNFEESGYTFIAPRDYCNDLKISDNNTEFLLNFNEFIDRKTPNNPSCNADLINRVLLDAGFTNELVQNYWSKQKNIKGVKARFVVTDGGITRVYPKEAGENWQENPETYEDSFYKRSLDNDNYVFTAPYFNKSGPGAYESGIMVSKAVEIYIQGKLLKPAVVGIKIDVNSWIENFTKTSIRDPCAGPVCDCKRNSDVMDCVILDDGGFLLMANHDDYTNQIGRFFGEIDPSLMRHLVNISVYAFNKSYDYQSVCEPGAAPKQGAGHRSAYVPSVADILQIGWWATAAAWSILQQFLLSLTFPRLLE
T1 sequence (P54289 957-1103 partner limits assumed): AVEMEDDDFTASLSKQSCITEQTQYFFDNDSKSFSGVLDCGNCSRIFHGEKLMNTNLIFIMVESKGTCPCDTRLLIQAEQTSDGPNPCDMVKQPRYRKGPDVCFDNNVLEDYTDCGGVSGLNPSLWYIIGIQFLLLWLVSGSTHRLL
T2 sequence (Q00975 whole entry): as the sequence (Q00975 whole entry) above
T2 sequence (P54284 whole entry partner): as the sequence (P54284 whole entry partner) above
T2 sequence (P54289 25-956 partner limits assumed): as the sequence (P54289 25-956 partner limits assumed) above
T2 sequence (P54289 957-1103 partner limits assumed): as the sequence (P54289 957-1103 partner limits assumed) above

For `COc1cc(F)ccc1-n1nc2c(c1-c1ccc(Cl)cc1)CN(S(=O)(=O)N1CCC(C)CC1)C2` [Cpd 73, 3-(4-Chlorophenyl)-2-(4-fluoro-2-methoxyphenyl)-5-[(4-methylpiperidin-1-yl)sulfonyl]-2,4,5,6-tetrahydropyrrolo[3,4-c]pyrazole], in assay [1], the inhibition at 0.33 µM amounted to 93% and the IC50 was 24 nM. For the same molecule, the inhibition at 0.1 µM on N-type calcium channel (setting [2]) was -28%. The inhibition at 0.1 µM on N-type calcium channel (setting [3]) is -34%.

Take `CCc1ccccc1-n1nc2c(c1-c1ccc(Cl)cc1)CN(C(=O)c1ccncc1)C2` [Cpd 5, 3-(4-Chlorophenyl)-2-(2-ethylphenyl)-5-(pyridin-4-ylcarbonyl)-2,4,5,6-tetrahydropyrrolo[3,4-c]pyrazole]: the IC50 in assay [1] was determined as 200 nM. For the same molecule, at N-type calcium channel (setting [2]), the inhibition at 0.25 µM stood at 12% and the inhibition at 1 µM worked out at 37%. Also, at N-type calcium channel (setting [3]), the inhibition at 0.25 µM is 0% and the inhibition at 1 µM turned out to be 11%.

In the case of `FC(F)(F)Oc1ccccc1-n1nc2c(c1-c1ccc(Cl)cc1)CN(c1ccc3nc(Cl)ccc3c1)C2` [Cpd 27, 2-Chloro-6-[3-(4-chlorophenyl)-2-[2-(trifluoromethoxy)phenyl]-2,6-dihydropyrrolo[3,4-c]pyrazol-5(4H)-yl]quinoline], the IC50 in assay [1] is 93 nM. Besides, at N-type calcium channel (setting [3]), the inhibition at 1 µM is -1%.

With `COC(=O)C1CCN(S(=O)(=O)N2Cc3nn(-c4ccccc4OC)c(-c4ccc(Cl)cc4)c3C2)CC1` [Cpd 58, Methyl 1-{[3-(4-chlorophenyl)-2-(2-methoxyphenyl)-2,6-dihydropyrrolo[3,4-c]pyrazol-5(4H)-yl]sulfonyl}piperidine-4-carboxylate], in assay [1], the IC50 was 5 nM. The inhibition at 0.1 µM on N-type calcium channel (setting [2]) was found to be 52%; at N-type calcium channel (setting [3]) it was 53%.

Regarding `COc1ccccc1-n1nc2c(c1-c1ccc(Cl)cc1)CN(S(=O)(=O)C1CCCC1)C2` [Cpd 40, 3-(4-Chlorophenyl)-5-(cyclopentylsulfonyl)-2-(2-methoxyphenyl)-2,4,5,6-tetrahydropyrrolo[3,4-c]pyrazole], the IC50 in assay [1] turned out to be 12 nM. Moreover, the inhibition at 0.25 µM came out at 69% at N-type calcium channel (setting [2]) and 57% on N-type calcium channel (setting [3]).

On to `COc1ccc(-c2c3c(nn2-c2ccccc2OC)CN(S(=O)(=O)C(C)C)C3)cn1` [Cpd 97, 2-(2-Methoxyphenyl)-3-(6-methoxypyridin-3-yl)-5-[(1-methylethyl)sulfonyl]-2,4,5,6-tetrahydropyrrolo[3,4-c]pyrazole], for which, in assay [1], the inhibition at 0.33 µM worked out at 67% and the IC50 is 43 nM. Further, at N-type calcium channel (setting [2]), the inhibition at 1 µM stood at 60%. In addition, at N-type calcium channel (setting [3]), the inhibition at 1 µM amounted to 40%.

As to `CC(C)S(=O)(=O)N1Cc2nn(-c3cccc4c3OCO4)c(-c3ccc(Cl)cc3)c2C1` [Cpd 81, 2-(1,3-Benzodioxol-4-yl)-3-(4-chlorophenyl)-5-[(1-methylethyl)sulfonyl]-2,4,5,6-tetrahydropyrrolo[3,4-c]pyrazole], in assay [1], the inhibition at 0.33 µM was found to be 89% and the IC50 was 20 nM. For the same molecule, the inhibition at 0.1 µM on N-type calcium channel (setting [3]) was -19%.

As to `CC1CCN(S(=O)(=O)N2Cc3nn(-c4cccc5c4OCC5)c(-c4ccc(Cl)cc4)c3C2)CC1` [Cpd 86, 3-(4-Chlorophenyl)-2-(2,3-dihydro-1-benzofuran-7-yl)-5-[(4-methylpiperidin-1-yl)sulfonyl]-2,4,5,6-tetrahydropyrrolo[3,4-c]pyrazole], in assay [1], the inhibition at 0.33 µM was 96% and the IC50 was 7 nM. Also, the inhibition at 0.1 µM on N-type calcium channel (setting [2]) turned out to be 33%. Moreover, the inhibition at 0.1 µM on N-type calcium channel (setting [3]) turned out to be 20%.

In the case of `CCc1ccccc1-n1nc2c(c1-c1ccc(Cl)cc1)CN(C(=O)CNC(=O)OC(C)(C)C)C2` [Cpd 11, tert-Butyl{2-[3-(4-chlorophenyl)-2-(2-ethylphenyl)-2,6-dihydropyrrolo[3,4-c]pyrazol-5 (4H)-yl]-2-oxoethyl}carbamate], the IC50 in assay [1] is 100 nM. For the same molecule, the values for the inhibition at 0.25 µM on N-type calcium channel (setting [2]) and on N-type calcium channel (setting [3]) were 31% and 14%, respectively. Further, the inhibition at 1 µM at N-type calcium channel (setting [2]) was 68%; at N-type calcium channel (setting [3]) it was 37%.

For `COc1ccccc1-n1nc2c(c1-c1ccc(Cl)cc1)CN(S(=O)(=O)N1C[C@H](C)O[C@@H](C)C1)C2` (mixture of isomers) [Cpd 61, 3-(4-Chlorophenyl)-5-{[(2S,6S)-2,6-dimethylmorpholin-4-yl]sulfonyl}-2-(2-methoxyphenyl)-2,4,5,6-tetrahydropyrrolo[3,4-c]pyrazole], the IC50 in assay [1] was 5 nM. The results for the inhibition at 0.1 µM on N-type calcium channel (setting [2]) and at N-type calcium channel (setting [3]) were 50% and 53%, respectively.

Consider `CC(C)S(=O)(=O)N1Cc2nn(-c3ccccc3N(C)C)c(-c3ccc(Cl)cc3)c2C1` [Cpd 88, 2-[3-(4-Chlorophenyl)-5-[(1-methylethyl)sulfonyl]-5,6-dihydropyrrolo[3,4-c]pyrazol-2(4H)-yl]-N,N-dimethylaniline], for which the inhibition at 0.33 µM in assay [1] amounted to 96%. In addition, the IC50 in assay [1] stood at 5 nM. The inhibition at 0.1 µM at N-type calcium channel (setting [2]) is 47%; on N-type calcium channel (setting [3]), 26%.

As to `CCN(CC)S(=O)(=O)N1Cc2nn(-c3ccccc3OC)c(-c3ccc(Cl)cc3)c2C1` [Cpd 56, 3-(4-Chlorophenyl)-N,N-diethyl-2-(2-methoxyphenyl)-2,6-dihydropyrrolo[3,4-c]pyrazole-5(4H)-sulfonamide], the IC50 in assay [1] is 3 nM. Besides, the inhibition at 0.1 µM at N-type calcium channel (setting [2]) is 36%; at N-type calcium channel (setting [3]) it was 28%.

Regarding `COc1cc(Cl)ccc1-n1nc2c(c1-c1ccc(Cl)cc1)CN(S(=O)(=O)N(C)C)C2` [Cpd 65, 2-(4-Chloro-2-methoxyphenyl)-3-(4-chlorophenyl)-N,N-dimethyl-2,6-dihydropyrrolo[3,4-c]pyrazole-5(4H)-sulfonamide], in assay [1], the inhibition at 0.33 µM came to 74%. Also, the IC50 in assay [1] came out at 150 nM. In addition, the results for the inhibition at 0.1 µM at N-type calcium channel (setting [2]) and on N-type calcium channel (setting [3]) were 1% and -8%, respectively.

Turning to `COc1ccccc1-n1nc2c(c1-c1ccc(Cl)cc1)CN(S(=O)(=O)N1CCCCCC1)C2` [Cpd 55, 5-(Azepan-1-ylsulfonyl)-3-(4-chlorophenyl)-2-(2-methoxyphenyl)-2,4,5,6-tetrahydropyrrolo[3,4-c]pyrazole], in assay [1], the IC50 was 7 nM. Besides, the inhibition at 0.1 µM at N-type calcium channel (setting [2]) stood at 54%; on N-type calcium channel (setting [3]) it was 25%.

On to `COc1ccccc1-n1nc2c(c1-c1ccc(Cl)nc1)CN(S(=O)(=O)C(C)C)C2` [Cpd 92, 3-(6-Chloropyridin-3-yl)-2-(2-methoxyphenyl)-5-[(1-methylethyl)sulfonyl]-2,4,5,6-tetrahydropyrrolo[3,4-c]pyrazole], for which, in assay [1], the inhibition at 0.33 µM is 86% and the IC50 is 16 nM. Further, the inhibition at 0.1 µM at N-type calcium channel (setting [2]) amounted to 10%. The inhibition at 0.1 µM on N-type calcium channel (setting [3]) was 14%.

As for `COc1ccccc1-n1nc2c(c1-c1ccc(Cl)cc1)CN(S(=O)(=O)c1c(C)noc1C)C2` [Cpd 87, 3-(4-Chlorophenyl)-5-[(3,5-dimethylisoxazol-4-yl)sulfonyl]-2-(2-methoxyphenyl)-2,4,5,6-tetrahydropyrrolo[3,4-c]pyrazole], in assay [1], the inhibition at 0.33 µM came to 89% and the IC50 turned out to be 17 nM. Also, at N-type calcium channel (setting [2]), the inhibition at 0.1 µM was found to be 49%. Besides, at N-type calcium channel (setting [3]), the inhibition at 0.1 µM came to 31%.

These data come from patent US8846949B2, “Pyrrolopyrazoles as N-type calcium channel blockers” (Janssen Pharmaceutica NV, priority 2012, dated 2014).
